Biological target: T1, 5-HT2B receptor (Homo sapiens, UniProt P41595)
T1 construct: host or cells: CHO-K1
Assay: 5-HT2B receptor binding, 3H-LSD ligand displacement assay
Settings: for inhibition at 0.1 µM: 0.1 uM compound; for inhibition at 1 µM: 1 uM compound; for inhibition at 0.01 µM: 0.01 uM compound; for inhibition at 0.001 µM: 0.001 uM compound
Method: 5-HT2B receptor binding (performed at Eurofins Panlabs Taiwan, Ltd.) to human receptor protein expressed in CHO-K1 cells was determined in a ligand displacement assay using ^3H-lysergic acid diethylamide (LSD) as radioligand and ketanserine as a standard reference compound. Data is presented as % displacement of radioligand at indicated compound concentrations, see Table 1 and Table 2.

T1 sequence (P41595 whole entry): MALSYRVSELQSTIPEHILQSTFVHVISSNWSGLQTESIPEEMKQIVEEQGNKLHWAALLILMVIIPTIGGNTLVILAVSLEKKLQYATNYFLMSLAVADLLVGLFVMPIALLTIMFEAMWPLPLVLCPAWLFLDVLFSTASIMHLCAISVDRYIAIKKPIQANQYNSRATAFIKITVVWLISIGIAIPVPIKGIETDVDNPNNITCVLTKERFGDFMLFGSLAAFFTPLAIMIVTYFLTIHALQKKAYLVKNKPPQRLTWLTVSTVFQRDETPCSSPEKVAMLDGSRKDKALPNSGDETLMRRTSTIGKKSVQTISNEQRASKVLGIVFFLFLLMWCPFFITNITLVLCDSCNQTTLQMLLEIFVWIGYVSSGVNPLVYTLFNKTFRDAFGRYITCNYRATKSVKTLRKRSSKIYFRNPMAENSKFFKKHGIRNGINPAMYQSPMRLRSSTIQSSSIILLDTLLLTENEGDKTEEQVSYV

## CNC(=N)N1CCC(c2ccccc2O)=N1 [Example 20, 3-(2-Hydroxyphenyl)-N-methyl-4,5-dihydro-1H-pyrazole-1-carboximidamide]
  inhibition at 0.1 µM: 41%
  inhibition at 1 µM: 89%

## CC1CC(c2cccc3ccccc23)=NN1C(=N)N (stereo not shown) [Example 23, 5-methyl-3-(naphthalen-1-yl)-4,5-dihydro-1H-pyrazole-1-carboximidamide]
  inhibition at 0.1 µM: 68%
  inhibition at 1 µM: 97%

## CC1CN(C(=N)N)N=C1c1cccc2ccccc12 (stereo not shown) [Example 24, 4-Methyl-3-(naphthalen-1-yl)-4,5-dihydro-1H-pyrazole-1-carboximidamide]
  inhibition at 0.01 µM: 39%
  inhibition at 0.1 µM: 86%
  inhibition at 1 µM: 102%

## CC1CC(c2ccccc2Cl)=NN1C(=N)N (stereo not shown) [Example 25, 3-(2-Chlorophenyl)-5-methyl-4,5-dihydro-1H-pyrazole-1-carboximidamide]
  inhibition at 0.1 µM: 54%
  inhibition at 1 µM: 91%

## CC1CC(c2c(F)cccc2F)=NN1C(=N)N (stereo not shown) [Example 26, 3-(2,6-Difluorophenyl)-5-methyl-4,5-dihydro-1H-pyrazole-1-carboximidamide]
  inhibition at 0.1 µM: 7%
  inhibition at 1 µM: 55%

## CCC1CC(c2ccccc2Cl)=NN1C(=N)N (stereo not shown) [Example 27, 3-(2-Chlorophenyl)-5-ethyl-4,5-dihydro-1H-pyrazole-1-carboximidamide]
  inhibition at 0.1 µM: 25%
  inhibition at 1 µM: 76%

## Cc1c(C2=NN(C(=N)N)C(C)C2)oc2ccccc12 (stereo not shown) [Example 28, 5-Methyl-3-(3-methylbenzofuran-2-yl)-4,5-dihydro-1H-pyrazole-1-carboximidamide]
  inhibition at 0.1 µM: 63%
  inhibition at 1 µM: 95%

## Cc1c(C2=NN(C(=N)N)C(C)C2)sc2ccccc12 (stereo not shown) [Example 29, 5-Methyl-3-(3-methylbenzo[b]thiophen-2-yl)-4,5-dihydro-1H-pyrazole-1-carboximidamide]
  inhibition at 0.1 µM: 69%
  inhibition at 1 µM: 97%

## N=C(N)N1N=C(c2ccccc2Cl)C2CCCC21 (stereo not shown) [Example 30, 3-(2-Chlorophenyl)-4,5,6,6a-tetrahydrocyclopenta[c]pyrazole-1(3aH)-carboximidamide]
  inhibition at 0.1 µM: 44%
  inhibition at 1 µM: 88%

## N=C(N)N1CCC(c2ccccc2N)=N1 [Example 31, 3-(2-Aminophenyl)-4,5-dihydro-1H-pyrazole-1-carboximidamide]
  inhibition at 0.1 µM: 21%
  inhibition at 1 µM: 69%

## CC1(C)CN(C(=N)N)N=C1c1ccccc1O [Example 32, 3-(2-Hydroxyphenyl)-4,4-dimethyl-4,5-dihydro-1H-pyrazole-1-carboximidamide]
  inhibition at 0.1 µM: 28%
  inhibition at 1 µM: 79%

## COc1cccc(Cl)c1C1=NN(C(=N)N)CC1 [Example 33, 3-(2-Chloro-6-methoxyphenyl)-4,5-dihydro-1H-pyrazole-1-carboximidamide]
  inhibition at 0.1 µM: 5%
  inhibition at 1 µM: 37%

## N=C(N)N1CCC(c2c(O)cccc2Cl)=N1 [Example 34, 3-(2-Chloro-6-hydroxyphenyl)-4,5-dihydro-1H-pyrazole-1-carboximidamide]
  inhibition at 0.1 µM: 23%
  inhibition at 1 µM: 52%

## CNC(=N)N1CC(C)C(c2ccccc2O)=N1 (stereo not shown) [Example 40, 3-(2-Hydroxyphenyl)-N,4-dimethyl-4,5-dihydro-1H-pyrazole-1-carboximidamide]
  inhibition at 0.001 µM: 1%
  inhibition at 0.01 µM: 42%
  inhibition at 0.1 µM: 92%
  inhibition at 1 µM: 99%

## CC1CN(C(=N)NCc2ccccc2)N=C1c1ccccc1O (stereo not shown) [Example 42, N-Benzyl-3-(2-hydroxyphenyl)-4-methyl-4,5-dihydro-1H-pyrazole-1-carboximidamide]
  inhibition at 0.001 µM: 49%
  inhibition at 0.01 µM: 97%
  inhibition at 0.1 µM: 98%
  inhibition at 1 µM: 99%

## CC1CN(C(=N)NO)N=C1c1ccccc1O (stereo not shown) [Example 44, N-Hydroxy-3-(2-hydroxyphenyl)-4-methyl-4,5-dihydro-1H-pyrazole-1-carboximidamide]
  inhibition at 0.001 µM: 12%
  inhibition at 0.01 µM: 30%
  inhibition at 0.1 µM: 85%
  inhibition at 1 µM: 94%

## COc1ccc(F)cc1C1=NN(C(=N)N)CC1C (stereo not shown) [Example 45, 3-(5-Fluoro-2-methoxyphenyl)-4-methyl-4,5-dihydro-1H-pyrazole-1-carboximidamide]
  inhibition at 0.01 µM: 26%
  inhibition at 0.1 µM: 54%
  inhibition at 1 µM: 86%

## CC1CN(C(=N)N)N=C1c1cc(F)ccc1O (stereo not shown) [Example 46, 3-(5-Fluoro-2-hydroxyphenyl)-4-methyl-4,5-dihydro-1H-pyrazole-1-carboximidamide]
  inhibition at 0.01 µM: 22%
  inhibition at 0.1 µM: 54%
  inhibition at 1 µM: 89%

## COc1c(F)cccc1C1=NN(C(=N)N)CC1C (stereo not shown) [Example 47, 3-(3-Fluoro-2-methoxyphenyl)-4-methyl-4,5-dihydro-1H-pyrazole-1-carboximidamide]
  inhibition at 0.01 µM: 15%
  inhibition at 0.1 µM: 68%
  inhibition at 1 µM: 92%

## CC1CN(C(=N)N)N=C1c1cccc(F)c1O (stereo not shown) [Example 48, 3-(3-Fluoro-2-hydroxyphenyl)-4-methyl-4,5-dihydro-1H-pyrazole-1-carboximidamide]
  inhibition at 0.01 µM: 54%
  inhibition at 0.1 µM: 85%
  inhibition at 1 µM: 95%

## COc1cc(F)ccc1C1=NN(C(=N)N)CC1C (stereo not shown) [Example 49, 3-(4-Fluoro-2-methoxyphenyl)-4-methyl-4,5-dihydro-1H-pyrazole-1-carboximidamide]
  inhibition at 0.01 µM: 11%
  inhibition at 0.1 µM: 28%
  inhibition at 1 µM: 78%

## CC1CN(C(=N)N)N=C1c1ccc(F)cc1O (stereo not shown) [Example 50, 3-(4-Fluoro-2-hydroxyphenyl)-4-methyl-4,5-dihydro-1H-pyrazole-1-carboximidamide]
  inhibition at 0.01 µM: 42%
  inhibition at 0.1 µM: 87%
  inhibition at 1 µM: 96%

## COc1ccc(Cl)cc1C1=NN(C(=N)N)CC1C (stereo not shown) [Example 51, 3-(5-Chloro-2-methoxyphenyl)-4-methyl-4,5-dihydro-1H-pyrazole-1-carboximidamide]
  inhibition at 0.01 µM: 7%
  inhibition at 0.1 µM: 31%
  inhibition at 1 µM: 76%

## CC1CN(C(=N)N)N=C1c1cc(Cl)ccc1O (stereo not shown) [Example 52, 3-(5-Chloro-2-hydroxyphenyl)-4-methyl-4,5-dihydro-1H-pyrazole-1-carboximidamide]
  inhibition at 0.01 µM: 34%
  inhibition at 0.1 µM: 72%
  inhibition at 1 µM: 95%

## COc1c(Cl)cccc1C1=NN(C(=N)N)CC1C (stereo not shown) [Example 53, 3-(3-Chloro-2-methoxyphenyl)-4-methyl-4,5-dihydro-1H-pyrazole-1-carboximidamide]
  inhibition at 0.01 µM: 40%
  inhibition at 0.1 µM: 87%
  inhibition at 1 µM: 100%

## CC1CN(C(=N)N)N=C1c1cccc(Cl)c1O (stereo not shown) [Example 54, 3-(3-Chloro-2-hydroxyphenyl)-4-methyl-4,5-dihydro-1H-pyrazole-1-carboximidamide]
  inhibition at 0.01 µM: 81%
  inhibition at 0.1 µM: 95%
  inhibition at 1 µM: 101%

## CC1CN(C(=N)NCc2ccc(Cl)cc2)N=C1c1ccccc1O (stereo not shown) [Example 55, N-(4-Chlorobenzyl)-3-(2-hydroxyphenyl)-4-methyl-4,5-dihydro-1H-pyrazole-1-carboximidamide]
  inhibition at 0.001 µM: 16%
  inhibition at 0.01 µM: 67%

## CC1CN(C(=N)NCc2ccccc2Cl)N=C1c1ccccc1O (stereo not shown) [Example 56, N-(2-Chlorobenzyl)-3-(2-hydroxyphenyl)-4-methyl-4,5-dihydro-1H-pyrazole-1-carboximidamide]
  inhibition at 0.001 µM: 52%
  inhibition at 0.01 µM: 95%

## CC1CN(C(=N)NCc2ccc(Cl)cc2Cl)N=C1c1ccccc1O (stereo not shown) [Example 57, N-(2,4-Dichlorobenzyl)-3-(2-hydroxyphenyl)-4-methyl-4,5-dihydro-1H-pyrazole-1-carboximidamide]
  inhibition at 0.001 µM: 21%
  inhibition at 0.01 µM: 78%

## CC1CN(C(=N)NCc2ccc(Cl)c(Cl)c2)N=C1c1ccccc1O (stereo not shown) [Example 58, N-(3,4-Dichlorobenzyl)-3-(2-hydroxyphenyl)-4-methyl-4,5-dihydro-1H-pyrazole-1-carboximidamide]
  inhibition at 0.001 µM: 2%
  inhibition at 0.01 µM: 52%

## COc1ccc(CNC(=N)N2CC(C)C(c3ccccc3O)=N2)cc1 (stereo not shown) [Example 59, 3-(2-Hydroxyphenyl)-N-(4-methoxybenzyl)-4-methyl-4,5-dihydro-1H-pyrazole-1-carboximidamide]
  inhibition at 0.001 µM: 20%
  inhibition at 0.01 µM: 74%

## COc1ccc(CNC(=N)N2CC(C)C(c3ccccc3O)=N2)cc1OC (stereo not shown) [Example 60, N-(3,4-Dimethoxybenzyl)-3-(2-hydroxyphenyl)-4-methyl-4,5-dihydro-1H-pyrazole-1-carboximidamide]
  inhibition at 0.001 µM: 6%
  inhibition at 0.01 µM: 28%

## COc1cc(CNC(=N)N2CC(C)C(c3ccccc3O)=N2)cc(OC)c1 (stereo not shown) [Example 61, N-(3,5-Dimethoxybenzyl)-3-(2-hydroxyphenyl)-4-methyl-4,5-dihydro-1H-pyrazole-1-carboximidamide]
  inhibition at 0.001 µM: 13%
  inhibition at 0.01 µM: 36%

## COc1ccc(CNC(=N)N2CC(C)C(c3ccccc3O)=N2)cc1Cl (stereo not shown) [Example 62, N-(3-chloro-4-methoxybenzyl)-3-(2-hydroxyphenyl)-4-methyl-4,5-dihydro-1H-pyrazole-1-carboximidamide]
  inhibition at 0.001 µM: 27%
  inhibition at 0.01 µM: 72%

## CC1CN(C(=N)N[C@H](C)c2ccccc2)N=C1c1ccccc1O (stereo partly drawn) [Example 63, 3-(2-Hydroxyphenyl)-4-methyl-N—((R)-1-phenylethyl)-4,5-dihydro-1H-pyrazole-1-carboximidamide]
  inhibition at 0.001 µM: 36%
  inhibition at 0.01 µM: 81%

## CC1CN(C(=N)N[C@@H](C)c2ccccc2)N=C1c1ccccc1O (stereo partly drawn) [Example 64, 3-(2-Hydroxyphenyl)-4-methyl-N—((S)-1-phenylethyl)-4,5-dihydro-1H-pyrazole-1-carboximidamide]
  inhibition at 0.001 µM: 23%
  inhibition at 0.01 µM: 43%

## CC1CN(C(=N)NCCc2ccccc2)N=C1c1ccccc1O (stereo not shown) [Example 65, 3-(2-hydroxyphenyl)-4-methyl-N-phenethyl-4,5-dihydro-1H-pyrazole-1-carboximidamide]
  inhibition at 0.001 µM: 48%
  inhibition at 0.01 µM: 89%

Reference: US10544103B2, “5-HT2 antagonists” (ANAMAR AB, priority 2015, dated 2020)
